Measured values from PubChem BioAssay (NCI).
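Dose response: 5 concentrations. Exposure: 48 h. Format: 96-well plates. Endpoint: linear interpolation; highest concentration if not reached. TGI: total growth inhibition.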

Legend:
Test in all cases: inhibition of tumour cell growth, NCI panel, 48 h
SF-539 CNS = tested on: SF-539 CNS
DU-145 prostate = tested on: DU-145 prostate
OVCAR-3 ovarian = tested on: OVCAR-3 ovarian
LOX IMVI melanoma = tested on: LOX IMVI melanoma
T-47D breast = tested on: T-47D breast
HOP-62 NSCLC = tested on: HOP-62 NSCLC
RPMI-8226 leukemia = tested on: RPMI-8226 leukemia
COLO 205 colon = tested on: COLO 205 colon
OVCAR-5 ovarian = tested on: OVCAR-5 ovarian
MDA-N = tested on: MDA-N
SNB-75 CNS = tested on: SNB-75 CNS
IGROV1 ovarian = tested on: IGROV1 ovarian
SK-MEL-28 melanoma = tested on: SK-MEL-28 melanoma
786-0 renal = tested on: 786-0 renal
NCI/ADR-RES ovarian = tested on: NCI/ADR-RES ovarian
NCI-H23 lung = tested on: NCI-H23 lung
SK-MEL-5 melanoma = tested on: SK-MEL-5 melanoma
OVCAR-4 ovarian = tested on: OVCAR-4 ovarian
PC-3 prostate = tested on: PC-3 prostate

In the case of `Cc1nn(C(=O)c2ccc(Cl)cc2)c2c1C(c1ccccc1)SC(N)=N2` (configuration not stated), the TGI (SF-539 CNS) is reported as > 10 µM, the TGI (DU-145 prostate) is reported as > 10 µM and the TGI (OVCAR-3 ovarian) is reported as > 10 µM. For the same molecule, the TGI (LOX IMVI melanoma) was > 10 µM, the TGI (T-47D breast) was > 10 µM and the TGI (HOP-62 NSCLC) was > 10 µM. For the same molecule, the TGI (RPMI-8226 leukemia) was > 10 µM, the TGI (COLO 205 colon) was > 10 µM and the TGI (OVCAR-5 ovarian) was > 10 µM. For the same molecule, the TGI (MDA-N) was > 10 µM, the TGI (SNB-75 CNS) was > 10 µM and the TGI (IGROV1 ovarian) was > 10 µM. The TGI (SK-MEL-28 melanoma) was > 10 µM, the TGI (786-0 renal) was > 10 µM and the TGI (NCI/ADR-RES ovarian) was > 10 µM. The TGI (NCI-H23 lung) was > 10 µM, the TGI (SK-MEL-5 melanoma) was > 10 µM and the TGI (OVCAR-4 ovarian) was > 10 µM. The TGI (PC-3 prostate) was > 10 µM.

For `CCOC(=O)c1sc2c(c1OC(=O)c1ccc(Cl)cc1Cl)c(=O)n(-c1ccccc1)c(=S)n2-c1ccccc1`, the TGI (SF-539 CNS) was > 100 µM, the TGI (DU-145 prostate) was > 100 µM and the TGI (OVCAR-3 ovarian) was > 100 µM. For the same molecule, the TGI (LOX IMVI melanoma) was > 81.1 µM, the TGI (T-47D breast) was > 100 µM and the TGI (HOP-62 NSCLC) was > 100 µM. The TGI (RPMI-8226 leukemia) was > 54.5 µM, the TGI (COLO 205 colon) was 35.4 µM and the TGI (OVCAR-5 ovarian) was > 100 µM. The TGI (MDA-N) was 68.7 µM, the TGI (SNB-75 CNS) was > 100 µM and the TGI (IGROV1 ovarian) was > 40.9 µM. For the same molecule, the TGI (SK-MEL-28 melanoma) was > 100 µM, the TGI (786-0 renal) was > 100 µM and the TGI (NCI/ADR-RES ovarian) was > 47.8 µM. The TGI (NCI-H23 lung) was > 82.6 µM, the TGI (SK-MEL-5 melanoma) was 51.1 µM and the TGI (OVCAR-4 ovarian) was > 100 µM. For the same molecule, the TGI (PC-3 prostate) was > 100 µM.

In the case of `CCC1CN2CCc3cc(OC)c(OC)cc3C2CC1CC1c2cc(OC)c(OC)cc2CCN1C(=O)C(Cc1c[nH]c2ccccc12)NC(=O)OC(C)(C)C` (configuration not stated), the TGI (SF-539 CNS) is reported as 4.43 µM, the TGI (DU-145 prostate) is reported as 4.75 µM and the TGI (OVCAR-3 ovarian) is reported as 6.74 µM. It also gave a TGI (LOX IMVI melanoma) of 3.58 µM, a TGI (T-47D breast) of 4.16 µM and a TGI (HOP-62 NSCLC) of 14.5 µM. The TGI (RPMI-8226 leukemia) was 6.15 µM, the TGI (COLO 205 colon) was 2.95 µM and the TGI (OVCAR-5 ovarian) was 16.7 µM. The TGI (MDA-N) was 3.49 µM, the TGI (SNB-75 CNS) was 10.8 µM and the TGI (IGROV1 ovarian) was 4.25 µM. For the same molecule, the TGI (SK-MEL-28 melanoma) was 4.31 µM, the TGI (786-0 renal) was 6.74 µM and the TGI (NCI/ADR-RES ovarian) was 3.02 µM. It also gave a TGI (NCI-H23 lung) of 16.6 µM, a TGI (SK-MEL-5 melanoma) of 3.08 µM and a TGI (OVCAR-4 ovarian) of 3.63 µM. It also gave a TGI (PC-3 prostate) of 10.5 µM.
